The test system of this data set is CCRIS mutagenicity, Ames/micronucleus/aberration tests. In words: CCRIS mutagenicity studies.
Where [1] appears, read: Test System: AMES SALMONELLA TYPHIMURIUM, Strain/Indicator: TA98, Metabolic Activation: NONE, Method: STANDARD PLATE.
[2] abbreviates: Test System: AMES SALMONELLA TYPHIMURIUM, Strain/Indicator: TA100, Metabolic Activation: NONE, Method: STANDARD PLATE.
[3] abbreviates: Test System: AMES SALMONELLA TYPHIMURIUM, Strain/Indicator: TA98, Metabolic Activation: RAT, LIVER, S-9, AROCLOR 1254, Method: STANDARD PLATE.
The mark [4] stands for this setting: Test System: AMES SALMONELLA TYPHIMURIUM, Strain/Indicator: TA1538, Metabolic Activation: NONE, Method: STANDARD PLATE.
The mark [5] stands for this setting: Test System: AMES SALMONELLA TYPHIMURIUM, Strain/Indicator: TA1538, Metabolic Activation: RAT, LIVER, S-9, AROCLOR 1254, Method: STANDARD PLATE.

Each structure is given as a SMILES string. The source made the active and inactive calls. No rule for the calls is given here.

For the compound `O=[N+]([O-])c1ccc(Oc2c(Cl)cc(Cl)cc2Cl)cc1`, the mutagenic call (Test System: AMES SALMONELLA TYPHIMURIUM, Strain/Indicator: TA98, Metabolic Activation: NONE, Method: PREINCUBATION) is “inactive; negative”; the mutagenic call under setting [1] is “inactive; negative”; the mutagenic call (Test System: AMES SALMONELLA TYPHIMURIUM, Strain/Indicator: TA98, Metabolic Activation: RAT LIVER S-9 (10%), PHENOBARBITAL AND 5,6-BENZOFLAVONE, Method: PREINCUBATION) is “inactive; negative”; the mutagenic call (Test System: AMES SALMONELLA TYPHIMURIUM, Strain/Indicator: TA98, Metabolic Activation: S-9, Method: STANDARD PLATE) was “inactive; negative”; the mutagenic call (Test System: AMES SALMONELLA TYPHIMURIUM, Strain/Indicator: TA100, Metabolic Activation: NONE, Method: PREINCUBATION) was “inactive; negative”; the mutagenic call under setting [2] is “inactive; negative”. The mutagenic call (Test System: AMES SALMONELLA TYPHIMURIUM, Strain/Indicator: TA100, Metabolic Activation: RAT LIVER S-9 (10%), PHENOBARBITAL AND 5,6-BENZOFLAVONE, Method: PREINCUBATION) is “inactive; negative”; the mutagenic call (Test System: AMES SALMONELLA TYPHIMURIUM, Strain/Indicator: TA100, Metabolic Activation: S-9, Method: STANDARD PLATE) is “inactive; negative”; the mutagenic call (Test System: AMES SALMONELLA TYPHIMURIUM, Strain/Indicator: YG1021, Metabolic Activation: NONE, Method: STANDARD PLATE) is “inactive; negative”; the mutagenic call (Test System: AMES SALMONELLA TYPHIMURIUM, Strain/Indicator: YG1021, Metabolic Activation: RAT LIVER S-9 (10%), PHENOBARBITAL AND 5,6-BENZOFLAVONE, Method: PREINCUBATION) was “inactive; negative”; the mutagenic call (Test System: AMES SALMONELLA TYPHIMURIUM, Strain/Indicator: YG1021, Metabolic Activation: RAT, LIVER, S-9, PCB, Method: PREINCUBATION) was “active; positive”; the mutagenic call (Test System: AMES SALMONELLA TYPHIMURIUM, Strain/Indicator: YG1021, Metabolic Activation: S-9, Method: STANDARD PLATE) was “inactive; negative”. Moreover, the mutagenic call is “active; positive” (Test System: AMES SALMONELLA TYPHIMURIUM, Strain/Indicator: YG1024, Metabolic Activation: NONE, Method: PREINCUBATION); “inactive; negative” (Test System: AMES SALMONELLA TYPHIMURIUM, Strain/Indicator: YG1024, Metabolic Activation: NONE, Method: STANDARD PLATE); “active; positive” (Test System: AMES SALMONELLA TYPHIMURIUM, Strain/Indicator: YG1024, Metabolic Activation: RAT LIVER S-9 (10%), PHENOBARBITAL AND 5,6-BENZOFLAVONE, Method: PREINCUBATION); “active; positive” (Test System: AMES SALMONELLA TYPHIMURIUM, Strain/Indicator: YG1024, Metabolic Activation: RAT, LIVER, S-9, PHENOBARBITAL AND 5,6-BENZOFLAVONE, Method: PREINCUBATION); “inactive; negative” (Test System: AMES SALMONELLA TYPHIMURIUM, Strain/Indicator: YG1024, Metabolic Activation: S-9, Method: STANDARD PLATE); “inactive; negative” (Test System: AMES SALMONELLA TYPHIMURIUM, Strain/Indicator: YG1026, Metabolic Activation: NONE, Method: STANDARD PLATE). Further, the mutagenic call reads like this: (Test System: AMES SALMONELLA TYPHIMURIUM, Strain/Indicator: YG1026, Metabolic Activation: RAT LIVER S-9 (10%), PHENOBARBITAL AND 5,6-BENZOFLAVONE, Method: PREINCUBATION) “inactive; negative”; (Test System: AMES SALMONELLA TYPHIMURIUM, Strain/Indicator: YG1026, Metabolic Activation: RAT, LIVER, S-9, PCB, Method: PREINCUBATION) “active; positive”; (Test System: AMES SALMONELLA TYPHIMURIUM, Strain/Indicator: YG1026, Metabolic Activation: S-9, Method: STANDARD PLATE) “inactive; negative”; (Test System: AMES SALMONELLA TYPHIMURIUM, Strain/Indicator: YG1029, Metabolic Activation: NONE, Method: PREINCUBATION) “inactive; negative”; (Test System: AMES SALMONELLA TYPHIMURIUM, Strain/Indicator: YG1029, Metabolic Activation: NONE, Method: STANDARD PLATE) “active; positive”; (Test System: AMES SALMONELLA TYPHIMURIUM, Strain/Indicator: YG1029, Metabolic Activation: RAT LIVER S-9 (10%), PHENOBARBITAL AND 5,6-BENZOFLAVONE, Method: PREINCUBATION) “active; positive”. Also, the mutagenic call (Test System: AMES SALMONELLA TYPHIMURIUM, Strain/Indicator: YG1029, Metabolic Activation: RAT, LIVER, S-9, AROCLOR 1254, Method: STANDARD PLATE) was “active; positive”; the mutagenic call (Test System: AMES SALMONELLA TYPHIMURIUM, Strain/Indicator: YG1029, Metabolic Activation: RAT, LIVER, S-9, PHENOBARBITAL AND 5,6-BENZOFLAVONE, Method: PREINCUBATION) was “active; positive”; the mutagenic call (Test System: AMES SALMONELLA TYPHIMURIUM, Strain/Indicator: YG1029, Metabolic Activation: S-9, Method: STANDARD PLATE) was “active; positive”.

Regarding `Cc1cc(N)c(C)cc1N`, the mutagenic call is, setting by setting: under setting [1], “inactive; negative”; under setting [3], “active; positive”; under setting [2], “inactive; negative”; (Test System: AMES SALMONELLA TYPHIMURIUM, Strain/Indicator: TA100, Metabolic Activation: RAT, LIVER, S-9, AROCLOR 1254, Method: STANDARD PLATE) “inactive; negative”; (Test System: AMES SALMONELLA TYPHIMURIUM, Strain/Indicator: TA1535, Metabolic Activation: NONE, Method: STANDARD PLATE) “inactive; negative”; (Test System: AMES SALMONELLA TYPHIMURIUM, Strain/Indicator: TA1535, Metabolic Activation: RAT, LIVER, S-9, AROCLOR 1254, Method: STANDARD PLATE) “inactive; negative”. The mutagenic call (Test System: AMES SALMONELLA TYPHIMURIUM, Strain/Indicator: TA1537, Metabolic Activation: NONE, Method: STANDARD PLATE) was “inactive; negative”; the mutagenic call (Test System: AMES SALMONELLA TYPHIMURIUM, Strain/Indicator: TA1537, Metabolic Activation: RAT, LIVER, S-9, AROCLOR 1254, Method: STANDARD PLATE) is “inactive; negative”; the mutagenic call under setting [4] was “inactive; negative”; the mutagenic call under setting [5] is “inactive; negative”.

As to `Nc1ccc2c(c1)C(=O)/C(=N/Nc1ccc(-c3ccc(N/N=C4\C=CC(=O)C(C(=O)O)=C4)cc3)cc1)C(S(=O)(=O)O)=C2`, the mutagenic call (Test System: AMES SALMONELLA TYPHIMURIUM, Strain/Indicator: TA98, Metabolic Activation: HAMSTER, LIVER, S-9, Method: PREINCUBATION (PRIVAL METHOD)) was “active; positive”.

With `COc1c(O)cc2c3c(cc4ccccc4c13)NC2=O`, under “Test System: AMES SALMONELLA TYPHIMURIUM, Strain/Indicator: TM677/8-AZAGUANINE, Metabolic Activation: NONE, Method: SUSPENSION/PLATE”, the mutagenic call is “inactive; negative”.

Turning to `CC(=O)Nc1ccc([N+](=O)[O-])cc1`, the mutagenic call is “inactive; negative” (Test System: AMES SALMONELLA TYPHIMURIUM, Strain/Indicator: TA98(NR), Metabolic Activation: NONE, Method: STANDARD PLATE); “inactive; negative” (Test System: AMES SALMONELLA TYPHIMURIUM, Strain/Indicator: TA98(NR), Metabolic Activation: RAT, LIVER, S-9, AROCLOR 1254, Method: STANDARD PLATE); “inactive; negative” under setting [1]; “inactive; negative” under setting [3]; “inactive; negative” (Test System: AMES SALMONELLA TYPHIMURIUM, Strain/Indicator: TA1538(NR), Metabolic Activation: NONE, Method: STANDARD PLATE); “inactive; negative” (Test System: AMES SALMONELLA TYPHIMURIUM, Strain/Indicator: TA1538(NR), Metabolic Activation: RAT, LIVER, S-9, AROCLOR 1254, Method: STANDARD PLATE). The mutagenic call is, setting by setting: under setting [4], “inactive; negative”; under setting [5], “inactive; negative”.

For the compound `CC(C)NCC(=O)NC(=O)C=[N+]=[N-]`, the mutagenic call (Test System: UDS RODENT CELLS, Strain/Indicator: THY INCORP (NON-S-PHASE), Metabolic Activation: NONE, Method: AUTORADIOGRAPHY) is “active; positive”.
